Results taken from patent US20140221490A1, “METHODS OF TREATING PAIN” (Hospira, Inc., priority 2011, published 2014).
Where “and” joins values, the source holds several entries; their conditions need not be identical. Equal values may be shown once. Entries after “also recorded” stand apart in the source; their conditions may differ.

Key:
[1] = test system: acute moderate to severe pain after orthopedic surgery; experiment: Multiple-dose randomized double-blind active- and placebo-controlled trial after orthopedic surgery: efficacy (SPID, pain relief, rescue morphine, patient global evaluation); type: in vivo, human
Procedure: Patients were randomly assigned to diclofenac, ketorolac, or placebo (2:1:1 ratio).
Randomization was stratified by risk group at baseline. The groups were high-risk, non-high-risk, or higher-weight, which was greater than 210 lbs., or 95 kg. Randomization was also stratified by anticipated stay between a long stay, which was longer than 24 hours, versus a shorter stay. The high-risk patients weighed less than 110 lbs.
The diclofenac formulation was Dyloject™. […] Adverse events (adverse effects) were recorded between surgery and randomization, not just after baseline, in order to distinguish treatment-emergent adverse events.
Patients were encouraged to wait at least 30 minutes after study drug initiation to request morphine.
Patients assessed their pain at baseline and at specified time points through the next 24 hours. Those who remained at the site longer assessed their pain every three hours until discharged. Patients returned for follow-up 5-9 days after baseline, and they received a follow-up telephone call 30-37 days after baseline.
Efficacy analyses were conducted using Statistical Analysis Software®, and unless otherwise noted refer to the intent-to-treat population. The analysis of area under the pain intensity difference curve, pain intensity difference, area under the pain relief curve, patient global evaluation, and amount of rescue medication were based on analysis of covariance (ANCOVA) models, with treatment and center as factors and baseline pain as a covariate. Confidence intervals were based on the pooled standard deviation obtained from an ANCOVA model. Treatment differences were tested with linear contrasts.
All testing of statistical significance was 2-sided unless the test performed was inherently 1-sided. […] The area under the pain relief curve was analyzed similarly.
The proportion of patients attaining at least 30% reduction in pain intensity and the frequency of rescue medication use were analyzed with Cochran-Mantel-Haenszel tests, with center as a stratification variable.
For area under the curve calculations, evaluations after the administration of rescue medication or after withdrawal due to adverse events (adverse effects) or lack of efficacy were imputed in accordance with prespecified rules. For post hoc analyses of pain intensity, an even more conservative and simplified set of imputation rules was applied.
This was a multicenter, multiple-dose, multiple-day, randomized, double-blind, active- and placebo-controlled, parallel-group study.
Assignments were made according to a computer-generated random-number code. Randomization was also stratified by risk cohort (high-risk, non-high-risk, or high-weight [≧95 kg]) at baseline (see FIG. 10), and by anticipated long stay (>24 hours) versus shorter stay, resulting in six strata within the randomization schedule.
Patients in all treatment groups received a bolus IV injection every 6 hours until discharge. […] All study drugs were blinded to the investigator and the patient; dose levels of the individual study treatments were not blinded.
Patients were encouraged to wait at least 30 minutes after study drug initiation to request morphine, to allow primary study drug to begin to exert analgesic effects but were never denied.
The primary efficacy measure was the sum of pain intensity differences (SPID) over five intervals: 0-24, 0-48, 0-72, 0-96, and 0-120 hours which was calculated by summing the difference in pain intensity (by a 0-100 visual analog scale) from baseline at designated timepoints.

[2] = cited from earlier work

## O=C(c1ccccc1)c1ccc2n1CCC2C(=O)O (stereo not drawn) [Ketorolac, ketorolac tromethamine]
[1]; 0-24, 0-48, 0-72, 0-96, 0-120 hours, P<0.0001
  total pain relief vs placebo: significantly better
[1]; all time intervals 0-24 to 0-120 hours, P<0.0001
  mean sum of pain intensity differences (SPID) vs placebo: significantly better; also recorded: significantly greater
[1]; at last assessment
  patients rating their drug as “very good” or “excellent” (patient global evaluation): 57.6%
[1]; diclofenac 50 mg, ketorolac 30 mg, all time intervals, P<0.05
  SPID scores vs placebo, higher-weight group: better with both diclofenac 50 mg and ketorolac 30 mg compared with placebo
[1]; dose by risk cohort, IV every 6 hours
  patients achieving clinically meaningful pain reduction (≧30% reduction in intensity): 75%
[1]; elderly patients, low dose (diclofenac 18.75 mg, ketorolac 15 mg)
  amount of morphine used: 14.9 mg
[1]; human, in vivo
  median time from administration of study drug to administration of rescue medication: 137.0 min and 137 min
  time at which pain intensity difference first significantly differed from placebo (onset of analgesia): 30 min
[1]; over the first five days
  total rescue morphine requirement: 18.1 mg
[2]
  Vd, volume of distribution: 0.21 L/kg
[2]; plasma
  Prot. bind., drug fraction bound to protein (fP): 99%
[2]; read-out: Cmax, maximum drug concentration in plasma, based on the drug's pharmacokinetics and administration of a normal drug dose
  Cmax: 1800 nM
